In paper PMC6359144 (International Journal of Molecular Sciences, 2019):
Read-outs that look alike come from different tables or passages of the source.

Columns and labels:
[1] = system: HCT-116 colon carcinoma cells; experiment: MTT assay, HCT-116 colon carcinoma cells; format: cell-based; details: Homo sapiens, HCT-116, read-out: IC50 HCT-116 (72 h)
Description: (§1) HT-29 (ACC-299), HCT-116 (ACC-581) and DLD-1 (ACC-278) colon carcinoma, MCF-7 (ACC-115) breast carcinoma, KB-V1 (ACC-149), 518A2 (Department of Radiotherapy and Radiobiology, University Hospital Vienna) melanoma and Ea.Hy926 (ATCC no. CRL-2922) HUVEC derived endothelial hybrid cells line were grown in Dulbecco’s Modified Eagle Medium (DMEM; Biochrom), high glucose supplemented with 10% (v/v) fetal bovine serum (FBS; Biochrom.) and 1% (v/v) Antibiotic-Antimycotic solution (anti-anti; Thermo Scientific). HDFa human dermal fibroblasts (ATCC: PCS-201-012™) were grown in DMEM supplemented with 10% FBS, 1% anti-anti and 2 mM glutamine. The cells were incubated at 37 °C, 5% CO2, 95% humidified atmosphere. By repeated addition of topotecan or vinblastine at the maximum tolerated dose to the cell medium of MCF-7 and KB-V1 cells, the cells were rendered multidrug-resistant, indicated as MCF-7^Topo and KB-V1^Vbl, respectively. They were serially passaged following trypsinization by using 0.05% trypsin/0.02% EDTA (Biochrom). Mycoplasma contamination was routinely monitored, and only mycoplasma–free cultures were used.
(§2) MTT [3-(4,5-dimethylthiazol-2-yl)-2,5-diphenyltetrazolium bromide] (ABCR) was used to determine the cytotoxicity of test compounds as previously described. Briefly, HDFa human dermal fibroblasts and Ea.Hy926 endothelial hybrid cells (both 1 × 10^5 cells/mL, 100 µL/well), 518A2 melanoma, KB-V1^Vbl cervix carcinoma, MCF-7^Topo breast carcinoma, HT-29, DLD-1 and HCT-116 colon carcinoma (all 5 × 10^4 cells/mL, 100 µL/well) were grown in 96-well culture plates for 24 h. Then, various concentrations of the test compounds were added and the cells were incubated for 24-72 h at 37 °C. After adding 12.5 µL of a 0.5% MTT solution in PBS (final concentration 0.05%) to cell medium, microplates were incubated for 2 h and subsequently swiftly turned to discard the medium. The precipitate of formazan crystals was then dissolved in a 10% solution of SDS in DMSO containing 0.6% acetic acid. To ensure complete dissolution of formazan, microplates were incubated for at least 4 h at 37 °C. Finally, the absorbance at λ = 570 nm (formazan) and 630 nm (background) was measured using a microplate reader (Tecan F200). All experiments were carried out in quadruplicate and the percentage of viable cells was calculated as the mean ± SD with controls set to 100%. Selected graphs of MTT assays can be found in the Supporting Information (Figure S8).

[2] = system: MCF-7^Topo breast adenocarcinoma cells; experiment: MTT assay, MCF-7^Topo breast carcinoma cells; format: cell-based; details: Homo sapiens, MCF7/Topo, read-out: IC50 MCF-7^Topo (72 h)
Description: as §1, §2

518A2 melanoma cells [3] = experiment: MTT assay, 518A2 melanoma cells; format: cell-based, human; details: for IC50: Homo sapiens, MTT, mean ± SD of four experiments; for effect on viability of 518A2 melanoma cells: concentrations as high as 50 µM; for IC50 after 72 h compared with IC50 after 24 h: 518A2 melanoma cells, fold lower
Description: as §1, §2

[4] = system: KB-V1^Vbl cervix carcinoma cells; experiment: MTT assay, KB-V1^Vbl cervix carcinoma cells; format: cell-based; details: Homo sapiens, read-out: IC50 KB-V1^Vbl (72 h)
Description: as §1, §2

[5] = system: Ea.Hy926 endothelial hybrid cells; experiment: MTT assay, Ea.Hy926 endothelial hybrid cells; format: cell-based; details: Homo sapiens, EA.hy 926, read-out: IC50 Ea.Hy926 (72 h)
Description: as §1, §2

[6] = system: DLD-1 colon carcinoma cells; experiment: MTT assay, DLD-1 colon carcinoma cells; format: cell-based; details: Homo sapiens, DLD-1, read-out: IC50 DLD-1 (72 h)
Description: as §1, §2

[7] = system: HT-29 colon carcinoma cells; experiment: MTT assay, HT-29 colon carcinoma cells; format: cell-based, human; details: for IC50: Homo sapiens, MTT; for effect on viability of HT-29 colon carcinoma cells: concentrations as high as 50 µM
Description: as §1, §2

518A2 melanoma cells [8] = system: 518A2 melanoma cells; set-up: method as in earlier work; details: read-out: IC50 518A2 (72 h), MTT, and 34; cited from earlier work
[9] = system: HCT-116 colon carcinoma cells; set-up: method as in earlier work; details: read-out: IC50 HCT-116 (72 h), MTT, and 34; cited from earlier work
[10] = biological target: T1, purified pig brain tubulin (Sus scrofa, UniProt P02550+P02554); experiment: Turbidimetric cell-free tubulin polymerization assay; format: biochemical; details: 10 µM, 340 nm
T1 construct: using purified pig brain tubulin; from tissue; host or cells: pig brain
T1 sequence (P02554 whole entry): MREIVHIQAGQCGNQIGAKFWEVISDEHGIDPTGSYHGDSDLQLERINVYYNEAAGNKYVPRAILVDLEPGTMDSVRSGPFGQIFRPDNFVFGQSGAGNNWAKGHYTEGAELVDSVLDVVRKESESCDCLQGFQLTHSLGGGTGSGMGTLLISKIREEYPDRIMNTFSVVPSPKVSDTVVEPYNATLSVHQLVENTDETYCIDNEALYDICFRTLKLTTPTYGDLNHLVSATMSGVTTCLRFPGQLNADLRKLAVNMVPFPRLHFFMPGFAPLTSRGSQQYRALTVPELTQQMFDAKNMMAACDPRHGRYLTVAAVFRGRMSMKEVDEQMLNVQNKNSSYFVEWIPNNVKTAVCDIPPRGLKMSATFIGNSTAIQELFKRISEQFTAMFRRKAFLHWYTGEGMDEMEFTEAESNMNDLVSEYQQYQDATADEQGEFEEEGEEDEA
T1 sequence (P02550 whole entry): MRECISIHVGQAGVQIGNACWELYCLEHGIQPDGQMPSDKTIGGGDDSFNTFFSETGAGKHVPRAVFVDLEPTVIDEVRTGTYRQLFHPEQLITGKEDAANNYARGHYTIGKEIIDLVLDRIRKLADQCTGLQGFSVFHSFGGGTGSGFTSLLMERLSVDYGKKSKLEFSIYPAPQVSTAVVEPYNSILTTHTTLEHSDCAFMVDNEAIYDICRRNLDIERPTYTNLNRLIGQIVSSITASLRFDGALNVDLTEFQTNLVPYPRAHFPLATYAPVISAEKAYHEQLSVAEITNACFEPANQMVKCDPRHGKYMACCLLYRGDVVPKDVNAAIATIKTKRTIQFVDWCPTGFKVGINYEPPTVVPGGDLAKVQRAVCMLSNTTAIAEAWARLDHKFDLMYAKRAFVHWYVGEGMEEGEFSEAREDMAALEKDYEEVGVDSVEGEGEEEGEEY
Description: An amount of 50 µL of Brinkley’s buffer 80 (BRB80) supplemented with 20% glycerol and 3 mM GTP was given in a black 96-well half-area plate with clear bottom. Then, test compounds 4d–f (final concentration: 5 µM, or 10 µM) or vehicle (DMSO) were added. After adding 50 µL tubulin in BRB80 (10 mg/mL) was pipetted in the wells and immediately placed in a pre-heated microplate reader (Tecan). The polymerization was determined turbidimetrically at 37 °C by measuring the absorption at 340 nm for 120 min in intervals of 5 min. Values were normally distributed for each group (Shapiro–Wilk test, p > 0.05) and there was homogeneity of variance (Levene’s test, p > 0.05).

[11] = system: MCF-7^Topo breast adenocarcinoma cells; set-up: method as in earlier work; details: read-out: IC50 MCF-7^Topo (72 h), MTT, and 34; cited from earlier work
[12] = system: Ea.Hy926 endothelial hybrid cells; set-up: method as in earlier work; details: read-out: IC50 Ea.Hy926 (72 h), MTT, and 34; cited from earlier work
[13] = system: HT-29 colon carcinoma cells; set-up: method as in earlier work; details: read-out: IC50 HT-29 (72 h), MTT, and 34; cited from earlier work
[14] = 518A2, read-out: IC50 518A2 (72 h), 72 h
[15] = 518A2, 24 h, read-out: IC50 518A2 (24 h)
[16] = HT-29, read-out: IC50 HT-29 (72 h), 72 h
[17] = HT-29, 24 h, read-out: IC50 HT-29 (24 h)

IC50 [1] [µM] | melting point [°C] | IC50 [2] [µM] | IC50 (518A2 melanoma cells [3]; [14]) [µM] | IC50 (518A2 melanoma cells [3]; [15]) [µM] | IC50 [4] [µM] | IC50 [6] [µM] | IC50 [7, 16] [µM] | IC50 [7, 17] [µM] | IC50 after 72 h compared with IC50 after 24 h (518A2 melanoma cells [3]) | Structure (SMILES) | IC50 [5] [µM] | effect on viability of 518A2 melanoma cells (518A2 melanoma cells [3]) | effect on viability of HT-29 colon carcinoma cells [7] | IC50 (518A2 melanoma cells [8]) [µM] | IC50 [9] [µM] | inhibition of tubulin polymerization [10] | IC50 [11] [µM] | IC50 [12] [µM] | IC50 [13] [µM]
3.4 ± 0.4 | 118 to 120 | 39.6 ± 5.9 | 5.6 ± 0.6 | 21.6 ± 3.9 | 11.1 ± 1.6 | 5.8 ± 0.4 | 6.6 ± 0.6 | 53.9 ± 12 | – | COc1ccc(-c2ocnc2-c2cc(OC)c(OC)c(OC)c2)cc1OCCCCC(=O)NO [4h, N-Hydroxy-5-[1-methoxy-4-(4’-(3’’,4’’,5’’-trimethoxyphenyl)oxazol-5’-yl)-2-phenoxy]pentanamide] | 3.4 ± 0.2 | – | – | – | – | – | – | – | –
– | – | – | > 50 | > 100 | – | – | > 50 | > 100 | – | CCOC(=O)CCCOc1cc(-c2ocnc2-c2cc(OC)c(OC)c(OC)c2)ccc1OC [3g, Ethyl 4-[1-methoxy-4-(4’-(3’’,4’’,5’’-trimethoxyphenyl)oxazol-5’-yl)-2-phenoxy]butyrate] | – | did not affect the viability | did not affect the viability | – | – | – | – | – | –
– | – | – | – | – | – | – | – | – | – | COc1ccc(/C=C\c2cc(OC)c(OC)c(OC)c2)cc1O [CA-4, Combretastatin A-4] | – | – | – | 0.018 ± 0.007 | 0.0026 ± 0.0002 | significant inhibition of tubulin polymerization | 0.5 ± 0.2 | 0.011 ± 0.002 | 3.6 ± 0.1
6.5 ± 0.3 | 189 | 6.1 ± 0.7 | 2.2 ± 0.3 | 9.4 ± 1.4 | 18.4 ± 3.4 | 3.3 ± 0.5 | 4.9 ± 0.3 | 4.6 ± 0.3 | – | COc1ccc(-c2ocnc2-c2cc(Cl)c(OC)c(OC)c2)cc1OCCCCCC(=O)NO [4c, N-Hydroxy-6-[1-methoxy-4-(4’-(3’’-chloro-4’’,5’’-dimethoxyphenyl)oxazol-5’-yl)-2-phenoxy]hexanamide] | 7.5 ± 0.5 | – | – | – | – | – | – | – | –
2.4 ± 0.1 | 202 | 2.9 ± 0.8 | 1 ± 0.1 | 10.4 ± 5.1 | 4 ± 0.2 | 3.2 ± 0.1 | 3.6 ± 0.1 | 4.2 ± 0.2 | – | COc1ccc(-c2ocnc2-c2cc(Cl)c(OC)c(OC)c2)cc1OCCCCC(=O)NO [4b, N-Hydroxy-5-[1-methoxy-4-(4’-(3’’-chloro-4’’,5’’-dimethoxyphenyl)oxazol-5’-yl)-2-phenoxy]pentanamide] | 0.57 ± 0.07 | – | – | – | – | – | – | – | –
0.21 ± 0.01 | 171 to 172 | 0.66 ± 0.14 | 0.11 ± 0.01 | 1.3 ± 0.4 | 0.15 ± 0.02 | 0.34 ± 0.01 | 2.9 ± 0.3 | 2.5 ± 0.4 | about eight-fold | COc1ccc(-c2ocnc2-c2cc(Cl)c(OC)c(OC)c2)cc1OCCCC(=O)NO [4a, N-Hydroxy-4-[1-methoxy-4-(4’-(3’’-chloro-4’’,5’’-dimethoxyphenyl)oxazol-5’-yl)-2-phenoxy]butanamide] | 0.0012 ± 0.0006 | – | – | – | – | – | – | – | –
0.92 ± 0.12 | – | 9.3 ± 0.8 | 0.64 ± 0.07 | 4.4 ± 0.1 | 2.7 ± 0.2 | 0.92 ± 0.04 | 2.8 ± 0.2 | 5 ± 0.2 | about eight-fold | COc1ccc(-c2ocnc2-c2cc(OC)c(OC)c(OC)c2)cc1OCCCC(=O)NO [4g, N-Hydroxy-4-[1-methoxy-4-(4’-(3’’,4’’,5’’-trimethoxyphenyl)oxazol-5’-yl)-2-phenoxy]butanamide] | 0.41 ± 0.04 | – | – | – | – | – | – | – | –
– | – | – | > 50 | > 100 | – | – | > 100 | > 100 | – | COc1ccc(-c2ocnc2-c2cc(OC)c(OC)c(OC)c2)cc1OCCCC(=O)O [4j, 4-[1-Methoxy-4-(4’-(3’’,4’’,5’’-trimethoxyphenyl)oxazol-5’-yl)-2-phenoxy]butyric acid] | – | did not affect the viability | did not affect the viability | – | – | – | – | – | –

Structure (SMILES) | IC50 [1] [µM] | melting point [°C] | IC50 [2] [µM] | IC50 (518A2 melanoma cells [3]; [14]) [µM] | IC50 (518A2 melanoma cells [3]; [15]) [µM] | IC50 [4] [µM] | IC50 [6] [µM] | IC50 [7, 16] [µM] | IC50 [7, 17] [µM] | IC50 after 72 h compared with IC50 after 24 h (518A2 melanoma cells [3]) | IC50 [5] [µM] | effect on viability of 518A2 melanoma cells (518A2 melanoma cells [3]) | effect on viability of HT-29 colon carcinoma cells [7] | IC50 (518A2 melanoma cells [8]) [µM] | IC50 [9] [µM] | inhibition of tubulin polymerization [10] | IC50 [11] [µM] | IC50 [12] [µM] | IC50 [13] [µM]
COc1ccc(-c2ocnc2-c2cc(OC)c(OC)c(OC)c2)cc1OCCCCCC(=O)NO [4i, N-Hydroxy-6-[1-methoxy-4-(4’-(3’’,4’’,5’’-trimethoxyphenyl)oxazol-5’-yl)-2-phenoxy]hexanamide] | 0.61 ± 0.07 | – | 15.8 ± 1.4 | 3.3 ± 0.3 | 6.9 ± 2.5 | 9 ± 0.3 | 1.3 ± 0.1 | 1.7 ± 0.1 | 47.6 ± 10.6 | – | 1.7 ± 0.1 | – | – | – | – | – | – | – | –
